The values that follow come from patent publication EP0745390A2, “Polymeric prodrugs for beta-lactamase and uses thereof” (priority 1995, dated 1996).

One series addresses bL (Enterobacter cloacae, UniProt P05364). It counts as biochemical. The conditions noted are these: 3-4 independently run experiments.
Series [1] has as its system H2981 human lung adenocarcinoma cell line. The experiment in a line: In vitro cytotoxicity assay, incorporation of [^3H] thymidine into DNA. It is filed as cell-based. As to conditions: H2981 cells, non-conjugate treated, doxorubicin instead of PEG-AC-Dox (Figure 3).
For series [2] the following is noted: in mice; cited from earlier work.
A short description of series [3]: Toxicity in nude mice (maximum tolerated dose), single intravenous injection.

For orientation: Km means the substrate concentration at which the rate is half of its maximum. The term kcat denotes the number of substrate molecules converted per active site and unit of time at saturation. One may read the IC50 as the point on the concentration scale where inhibition reaches its midpoint. In general, MTD refers to the largest dose that counted as tolerated.

Sequence of bL (P05364 21-381): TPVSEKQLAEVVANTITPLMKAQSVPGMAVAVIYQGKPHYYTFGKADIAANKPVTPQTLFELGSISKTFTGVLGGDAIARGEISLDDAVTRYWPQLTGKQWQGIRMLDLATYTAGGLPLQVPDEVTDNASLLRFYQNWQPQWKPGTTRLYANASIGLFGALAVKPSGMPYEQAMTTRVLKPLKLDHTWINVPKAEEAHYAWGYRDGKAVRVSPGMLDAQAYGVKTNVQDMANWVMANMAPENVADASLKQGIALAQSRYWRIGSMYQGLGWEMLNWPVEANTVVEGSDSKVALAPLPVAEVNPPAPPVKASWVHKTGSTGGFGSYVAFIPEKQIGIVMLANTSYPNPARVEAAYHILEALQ

On to `COc1cccc2c1C(=O)c1c(O)c3c(c(O)c1C2=O)C[C@@](O)(C(=O)CO)C[C@@H]3O[C@H]1C[C@H](NC(=O)OCC2=C(C(=O)O)N3C(=O)[C@@H](NC(=O)Cc4ccccc4)[C@H]3SC2)[C@H](O)[C@H](C)O1` [C-Dox, 7-phenylacetylcephalosporin doxorubicin], for which the Vmax at bL (hydrolysis by bL in phosphate buffered saline containing bovine serum albumin) was determined as 400 ± 96 µmol/mim /mg. Further, at bL (hydrolysis by bL), the Km is 46 ± 6 µM and the kcat came out at 280 ± 67 s⁻¹.

`COc1cccc2c1C(=O)c1c(O)c3c(c(O)c1C2=O)C[C@@](O)(C(=O)CO)C[C@@H]3O[C@H]1C[C@H](N)[C@H](O)[C@H](C)O1` [doxorubicin] had an IC50 in series [1] of 100 to 200 nM. Also, in series [2], the initial half life is 2 min. The compound also yielded a maximum tolerated dose in series [3] (nude mice, single intravenous injection, dose giving < 20% weight loss, no deaths) of 13.8 µmol/kg body weight. In series [3] (nude, mouse, in vivo, iv), this compound displayed a maximal tolerated dose (MTD) of 8 mg/kg.
